Experimental data reported in ChEMBL document CHEMBL3616462, “Synthesis and antiviral activity of maleopimaric and quinopimaric acids' derivatives” (Bioorg Med Chem, 2015).

How the values were obtained:
[1] = Selectivity index, ratio of CC50 for Influenza A virus (A/California/07/2009(H1N1)) infected MDCK cells to EC50 for antiviral activity against Influenza A virus H1N1 (A/California/07/2009(H1N1)) infected in MDCK cells; type: toxicity, cell-based; conditions: dog; read-out: Ratio CC50/EC50
[2] = Cytotoxicity against Influenza B virus (B/Florida/4/2006) infected MDCK cells; type: cell-based, Canis lupus familiaris; conditions: dog
[3] = Antiviral activity against Influenza A virus (A/California/07/2009(H1N1)) infected in MDCK cells; type: functional, cell-based
[4] = Antiviral activity against Influenza A virus (A/Brisbane/10/2007(H3N2)) infected in MDCK cells; type: functional, cell-based
[5] = Cytotoxicity against Influenza A virus (A/Brisbane/10/2007(H3N2)) infected MDCK cells; type: cell-based, Canis lupus familiaris; conditions: dog
Influenza B virus = experiment: Antiviral activity against Influenza B virus (B/Florida/4/2006) in MDCK cells; type: functional, cell-based; conditions: B/Florida/4/2006, MDCK
[6] = Cytotoxicity against Influenza A virus (A/California/07/2009(H1N1)) infected MDCK cells; type: cell-based, Canis lupus familiaris; conditions: dog
[7] = Cytotoxicity against Influenza A virus (A/Viet Nam/1203/2004(H5N1)) infected MDCK cells; type: cell-based, Canis lupus familiaris; conditions: dog
[8] = Antiviral activity against Influenza A virus (A/Viet Nam/1203/2004(H5N1)) infected in MDCK cells; type: functional, cell-based
[9] = Selectivity index, ratio of CC50 for Influenza A virus (A/Brisbane/10/2007(H3N2)) infected MDCK cells to EC50 for antiviral activity against Influenza A virus (A/Brisbane/10/2007(H3N2)); type: toxicity, cell-based; conditions: dog; read-out: Ratio CC50/EC50

| SMILES | selectivity ratio [1] | CC50 [2] [µM] | EC50 [3] [µM] | EC50 [4] [µM] | CC50 [5] [µM] | EC50 (Influenza B virus) [µM] | CC50 [6] [µM] | CC50 [7] [µM] | EC50 [8] [µM] | selectivity ratio [9] |
| --- | --- | --- | --- | --- | --- | --- | --- | --- | --- | --- |
| COC(=O)[C@]1(C)CCC[C@]2(C)[C@H]3C[C@H]4C(C(C)C)=C[C@]3(CC[C@H]21)[C@@H]1/C(=N/O)CC[C@H](O)[C@@H]14 | 1.1 | 1.2 | 3.2 | > 1.6 | 1.6 | > 1.2 | 3.5 | 1.2 | > 1.2 |  |
| COC(=O)[C@]1(C)CCC[C@]2(C)[C@H]3C[C@H]4C(C(C)C)=C[C@]3(CC[C@H]21)[C@@H]1C(=O)CCC2(OCCO2)[C@@H]14 | 1.3 | 27 | 27 | > 26 | 26 | > 27 | 34 | 24 | > 24 |  |
| COC(=O)[C@]1(C)CCC[C@]2(C)[C@H]3C[C@@H]4[C@H]5[C@@H]6CCC(=O)[C@H]5[C@@]3(CC[C@H]21)CC4(C(C)C)O6 |  | > 100 | > 100 | > 100 | > 100 | > 100 | > 100 | > 100 | > 100 |  |
| COC(=O)[C@H]1[C@@H](C(=O)OC)[C@@]23C=C(C(C)C)[C@@H]1C[C@@H]2[C@@]1(C)CCC[C@@](C)(C(=O)OC)[C@@H]1CC3 | 2.5 |  | 3.8 | > 7.6 | 7.6 |  | 9.4 |  |  |  |
| CC(C)C1=C[C@@]23CC[C@@H]4[C@](C)(CCC[C@@]4(C)C(=O)O)[C@H]2C[C@@H]1[C@H]1C(=O)C=CC(=O)[C@H]13 | 1 | 20 | 32 | > 27 | 27 | > 20 | 33 | 30 | > 30 |  |
| COC(=O)[C@]1(C)CCC[C@]2(C)[C@H]3C[C@H]4C(C(C)C)=C[C@]3(CC[C@H]21)[C@@H]1C(=O)C=CC(=O)[C@@H]14 |  | 2.9 | > 5.5 | 3.2 | 3.9 | > 2.9 | 5.5 | 2.9 | > 2.9 | 1.2 |
| COC(=O)[C@]12C=CC(=O)[C@H]1[C@@]13C=C(C(C)C)[C@@H]2C[C@@H]1[C@@]1(C)CCC[C@@](C)(C(=O)OC)[C@@H]1CC3 | 1.2 | 25 | 3.1 | 3.2 | 3.9 | > 25 | 3.8 | 13 | > 13 | 1.2 |
| COC(=O)[C@]1(C)CCC[C@]2(C)[C@H]3C[C@H]4C(C(C)C)=C[C@]3(CC[C@H]21)[C@@H]1C(=O)CC[C@H](O)[C@@H]14 |  | > 100 | > 100 | > 100 | > 100 | > 100 | > 100 | > 100 | > 100 |  |
| COC(=O)[C@]1(C)CCC[C@]2(C)[C@H]3C[C@H]4C(C(C)C)=C[C@]3(CC[C@H]21)[C@H]1[C@@H]4[C@@H](O)CC[C@@H]1O | 1.9 | > 100 | 48 | > 64 | 64 | > 100 | 93 | > 100 | > 100 |  |
| CC(C)C1=C[C@@]23CC[C@H]4[C@](C)(CO)CCC[C@]4(C)[C@H]2C[C@@H]1[C@@H]1[C@H]3[C@@H](O)CC[C@@H]1O |  | 31 | > 11 | 32 | 33 | > 31 | 11 | 29 | > 29 | 1 |
| COC(=O)[C@]1(C)CCC[C@]2(C)[C@H]3C[C@H]4C(C(C)C)=C[C@]3(CC[C@H]21)[C@@H]1C(=O)CC[C@H](OC(C)=O)[C@@H]14 |  | > 100 | > 100 | > 100 | > 100 | > 100 | > 100 | > 100 | > 100 |  |
| COC(=O)[C@]1(C)CCC[C@]2(C)[C@H]3C[C@H]4C(C(C)C)=C[C@]3(CC[C@H]21)[C@@H]1C(=O)CC[C@H](OCCC#N)[C@@H]14 |  | 52 | > 100 | 34 | 68 | > 52 | > 100 | 31 | > 31 | 2 |
| COC(=O)[C@]1(C)CCC[C@]2(C)[C@H]3C[C@H]4C(C(C)C)=C[C@]3(CC[C@H]21)[C@H]1[C@@H]4[C@@H](OC(=O)c2cccnc2)CC[C@@H]1OC(=O)c1cccnc1 | 1.1 | 11 | 29 | > 4.9 | 4.9 | > 11 | 32 | 8.5 | > 8.5 |  |
| COC(=O)[C@]1(C)CCC[C@]2(C)[C@H]3C[C@H]4C(C(C)C)=C[C@]3(CC[C@H]21)[C@H]1[C@@H]4[C@@H](OC(=O)/C=C/c2ccccc2)CC[C@@H]1OC(=O)C=Cc1ccccc1 |  | 9.3 | > 17 | > 4 | 4 | > 9.3 | 17 | 8.2 | > 8.2 |  |
| CC(C)C1=C[C@@]23CC[C@H]4[C@](C)(COC(=O)/C=C/c5ccccc5)CCC[C@]4(C)[C@H]2C[C@@H]1[C@@H]1[C@H]3[C@@H](OC(=O)/C=C/c2ccccc2)CC[C@@H]1OC(=O)/C=C/c1ccccc1 | 1.1 | 46 | 31 | 31 | 33 | > 46 | 35 | > 100 | > 100 | 1.1 |
| COC(=O)[C@]1(C)CCC[C@]2(C)[C@H]3C[C@H]4C(C(C)C)=C[C@]3(CC[C@H]21)[C@@H]1/C(=N/O)CCC(=O)[C@@H]14 | 1 | 2.4 | 31 | > 13 | 13 | > 2.4 | 31 | 1.7 | > 1.7 |  |
| COC(=O)[C@]1(C)CCC[C@]2(C)[C@H]3C[C@@H]4[C@@H]5[C@H]6[C@H](OC(C)=O)CC[C@@H]5OC4(C(C)C)C[C@]63CC[C@H]21 | 1.1 | 10 | 3.2 | > 5 | 5 | > 10 | 3.5 | 12 | > 12 |  |
| COC(=O)[C@]1(C)CCC[C@]2(C)[C@H]3C[C@H]4C(C(C)C)=C[C@]3(CC[C@H]21)[C@@H]1/C(=N/OC(C)=O)CC[C@H](OC(C)=O)[C@@H]14 |  | 2.8 | > 4.8 | 3.1 | 3.3 | > 2.8 | 4.8 | 2.5 | > 2.5 | 1.1 |
